Test results published in patent publication US6365137B1, “Skin whitening agents” (Collaborative Laboratories, Inc., priority 1999, dated 2002).

How the values were obtained:
[1] = test system: Cloudman S91 melanocytes; experiment: Cell-based whitening/tanning assay (melanocyte pigmentation assay); conditions: concentration 30 (30μM in method), 5-day treatment, 10nM MSH
Experimental: The melanocyte pigmentation assay measures a test sample's ability to inhibit pigmentation. […] After a 5-day treatment period with each condition tested in triplicate wells, the cells were harvested by washing with PBS and adding 5% trichloroacetic acid to each well. After a 15 minute incubation the acid was aspirated and replaced with 200μl/well of 10% dimethyl sulfoxide/1N sodium hydroxide. The plates were sealed and incubated at 65° C. for 30 minutes. 200μl of each digestion mixture was then transferred to a well of a 96-well microtiter plate and optical densities were read at 405 nm.
An EC50 (the concentration of test sample that inhibits 50% of pigmentation) was calculated for each sample.

[2] = test system: mushroom tyrosinase (EC 1.14.18.1); experiment: Tyrosinase inhibition assay (test for whitening activity); format: biochemical
Experimental: Tyrosinase activity is determined in reaction mixtures containing […], 30 units/ml of mushroom tyrosinase (EC 1.14.18.1), 75 mM sodium phosphate (pH 7.5), and test sample at the indicated concentrations. The reaction is conducted at room temperature and is monitored by measuring the increase in OD405 as melanin pigment is produced.
Tyrosinase activity was determined by measuring the rate of change of optical density at 490 nm as tyrosine was converted into dopachrome. (Tyrosinase catalyzes the conversion of tyrosine into DOPA quinone, which spontaneously converts into dopachrome.) The rate of tyrosinase activity in the presence of various concentrations of test sample was measured at room temperature in a reaction mixture containing 50 mM sodium phosphate (pH 6.75), 275 μM tyrosine and 25U/ml mushroom tyrosinase (wherein U refers to the units of enzyme activity. Readings were made at one minute intervals for ten minutes and the reaction rate was calculated by linear regression. Each concentration was run in triplicate. Inhibition of tyrosinase activity was expressed as a percentage of the activity measured for the untreated control mixture (no test sample). An EC50 (the concentration of test sample that inhibits 50% of tyrosinase activity) was calculated.

% inhibition (tyrosinase) ([2]; concentration 1.25 (M)): 26.7%
mod/min mean (tyrosinase reaction rate) ([2]; concentration 1.25 (M)): 7.95 mod/min
% inhibition (tyrosinase) ([2]; concentration 2.5 (M)): 45.5%
mod/min mean (tyrosinase reaction rate) ([2]; concentration 2.5 (M)): 5.92 mod/min
% inhibition (tyrosinase) ([2]; concentration 10.5 (M)): 75.8%
mod/min mean (tyrosinase reaction rate) ([2]; concentration 10.5 (M)): 2.63 mod/min
% inhibition (tyrosinase) ([2]; concentration 20 (M)): 92.2%
mod/min mean (tyrosinase reaction rate) ([2]; concentration 20 (M)): 0.85 mod/min
Compound: Oc1ccc(O)cc1 [Hydroquinone]
inhibition at 30 µM ([1]; Melanocyte, 120 h, read-out: % Stimulation (+)/ Inhibition (−) of pigmentation): 36.6%
mean (optical density at 405 nm, pigmentation) [1]: 0.801
